Assay results: ChEMBL document CHEMBL1149889, “ent-Kaurane Diterpenoids from Isodon nervosus” (J Nat Prod, 2008)

What was measured:
Assay type in all cases: functional, cell-based
[1] = system: A549; test: Cytotoxicity against human A549 cells
[2] = system: HepG2; test: Cytotoxicity against human HepG2 cells
[3] = system: K562; test: Cytotoxicity against human K562 cells

Structure (SMILES)	IC50 [1] [µM]	IC50 [2] [µM]	IC50 [3] [µM]
C=C1[C@@H]2C[C@H](OC(C)=O)[C@H]3[C@]4(C)[C@@H](OC(C)=O)C[C@H](O)C(C)(C)[C@H]4C(=O)[C@H](OC(C)=O)[C@]3(C2)[C@@H]1O [ADENANTHIN J]	> 100	> 100	> 100
C=C1C(=O)[C@]23C[C@H]1C[C@H](OC(C)=O)[C@H]2[C@@]1(C)[C@H]([C@@H](OC(C)=O)[C@@H]3OC(C)=O)C(C)(C)[C@@H](O)C[C@@H]1O [NERVONIN B]	1.53	1.16	1.18
C=C1[C@@H]2C[C@H](O)[C@H]3[C@@]4(C)[C@H]([C@@H](O)[C@H](OC(C)=O)[C@]3(C2)[C@@H]1O)C(C)(C)[C@@H](OC(C)=O)C[C@@H]4O [FORRESTIN B]	> 100	> 100	> 100
C=C1[C@@H]2C[C@H](O)[C@@H]3[C@@](CC(=O)[C@@H]4C(C)(C)[C@@H](O)C[C@H](O)[C@]43C)(C2)[C@@H]1OC(C)=O [NERVONIN J]	> 100	> 100	> 100
C=C1[C@@H]2C[C@H](OC(C)=O)[C@H]3[C@]4(C)[C@@H](OC(C)=O)C[C@H](O)C(C)(C)[C@H]4C(=O)[C@H](OC(C)=O)[C@]3(C2)[C@@H]1OC(C)=O [NERVOSANIN]	> 100	> 100	> 100
C=C1[C@@H]2C[C@H](OC(C)=O)[C@H]3[C@]4(C)[C@@H](OC(C)=O)C[C@H](O)C(C)(C)[C@H]4[C@H](O)[C@H](OC(C)=O)[C@]3(C2)[C@@H]1O [FORRESTIN C]	> 100	> 100	> 100
C=C1[C@@H]2C[C@H](O)[C@H]3[C@]4(C)[C@@H](OC(C)=O)C[C@H](O)C(C)(C)[C@H]4[C@@H](O)[C@H](OC(C)=O)[C@]3(C2)[C@@H]1O [NERVONIN F]	> 100	> 100	> 100
C=C1[C@@H]2C[C@H](OC(C)=O)[C@H]3[C@@]4(C)[C@H](C(=O)[C@H](OC(C)=O)[C@]3(C2)[C@@H]1OC(C)=O)C(C)(C)[C@@H](O)C[C@@H]4O [NERVONIN C]	> 100	> 100	> 100
C=C1[C@@H]2C[C@H](OC(C)=O)[C@H]3[C@]4(C)[C@@H](OC(C)=O)C[C@H](O)C(C)(C)[C@H]4[C@@H](O)[C@H](OC(C)=O)[C@]3(C2)[C@@H]1OC(C)=O [NERVONIN D]	> 100	> 100	> 100
C=C1[C@@H]2C[C@H](OC(C)=O)[C@H]3[C@]4(C)[C@@H](OC(C)=O)C[C@H](O)C(C)(C)[C@H]4C(=O)[C@H](O)[C@]3(C2)[C@@H]1OC(C)=O [ADENANTHIN K]	> 100	> 100	> 100
C=C1C(=O)[C@]23C[C@H]1C[C@H](OC(C)=O)[C@H]2[C@]1(C)[C@@H](OC(C)=O)C[C@H](O)C(C)(C)[C@H]1[C@@H](OC(C)=O)[C@@H]3OC(C)=O [CALCICOLIN A]	12.2	0.51	2.39
C=C1[C@@H]2C[C@H](O)[C@H]3[C@@]4(C)[C@H](C[C@H](OC(C)=O)[C@]3(C2)[C@@H]1O)C(C)(C)[C@@H](OC(C)=O)C[C@@H]4O [ADENANTHIN E]	> 100	> 100	> 100
C=C1C(=O)[C@]23C[C@H]1C[C@H](OC(C)=O)[C@H]2[C@]1(C)[C@@H](OC(C)=O)C[C@H](O)C(C)(C)[C@H]1C(=O)[C@@H]3OC(C)=O [ADENANTHIN]	8.07	0.32	1.05
C=C1C(=O)[C@]23C[C@H]1C[C@H](OC(C)=O)[C@H]2[C@@]1(C)[C@H](C(=O)[C@@H]3OC(C)=O)C(C)(C)[C@@H](O)C[C@@H]1O [CALCICOLIN B]	8.5	0.52	1.55
C=C1[C@@H]2C[C@H](OC(C)=O)[C@H]3[C@@]4(C)[C@H]([C@@H](O)[C@H](OC(C)=O)[C@]3(C2)[C@@H]1O)C(C)(C)[C@@H](O)C[C@@H]4O [NERVONIN I]	> 100	> 100	> 100
C=C1[C@@H]2C[C@H](OC(C)=O)[C@H]3[C@]4(C)[C@@H](OC(C)=O)C[C@H](O)[C@]5(C)C[C@@](O)([C@H]54)[C@H](OC(C)=O)[C@]3(C2)[C@@H]1OC(C)=O [NERVONIN A]	> 100	> 100	> 100
C=C1C(=O)[C@]23C[C@H]1C[C@H](OC(C)=O)[C@H]2[C@]1(C)[C@@H](OC(C)=O)C[C@H](O)C(C)(C)[C@H]1[C@@H](O)[C@@H]3OC(C)=O [WEISIENSIN A]	1.88	1.43	4.11
C=C1[C@@H]2C[C@H](OC(C)=O)[C@H]3[C@]4(C)[C@@H](OC(C)=O)C[C@H](O)C(C)(C)[C@H]4C(=O)[C@H](O)[C@]3(C2)[C@@H]1O [NERVONIN E]	> 100	> 100	> 100
C=C1[C@@H]2C[C@H](O)[C@H]3[C@]4(C)[C@@H](OC(C)=O)C[C@H](O)C(C)(C)[C@H]4[C@@H](OC(C)=O)[C@H](OC(C)=O)[C@]3(C2)[C@@H]1O [NERVONIN G]	> 100	> 100	> 100
C=C1[C@@H]2C[C@H](OC(C)=O)[C@H]3[C@@]4(C)[C@H](C[C@H](OC(C)=O)[C@]3(C2)[C@@H]1O)C(C)(C)[C@@H](O)C[C@@H]4O [NERVONIN H]	> 100	> 100	> 100
